From ChEMBL document CHEMBL4619729, “In silico and in vitro studies on interaction of novel non-imidazole histamine H3R antagonists with CYP3A4” (Bioorg Med Chem Lett, 2020)

Key:
CYP3A4 [1] = target: T1, CYP3A4 (Homo sapiens, UniProt P08684); assay: Inhibition of CYP3A4 (unknown origin) assessed as inhibition of conversion of beetle D-luciferin to D-luciferin at 10 uM by luminescent P450-Glo assay relative to control; format: ADME; details: probe beetle D-luciferin
Cytochrome P450 3A4 = Cytochrome P450 3A4 (Homo sapiens, UniProt P08684); assay: Activation of CYP3A4 (unknown origin) assessed as activation of conversion of beetle D-luciferin to D-luciferin at 10 uM by luminescent P450-Glo assay relative to control; format: ADME
Histamine H3 receptor [2] = target: T2, Histamine H3 receptor (Homo sapiens, UniProt Q9Y5N1); assay: Displacement of [3H]-N-alpha-methylhistamine from human recombinant full length H3R expressed in HEK293 cell membranes by Microbeta scintillation counting method
Histamine H3 receptor [3] = target: T2, Histamine H3 receptor; assay: Binding affinity to H3R (unknown origin)
CYP3A4 [4] = target: T1, CYP3A4; assay: Activation of human recombinant CYP3A4 assessed as activation of conversion of beetle D-luciferin to D-luciferin at 10 uM preincubated for 10 mins followed by substrate addition and measured after 50 mins in presence of NADPH by CYP450-Glo assay relative to control; format: ADME; details: recombinant CYP3A4, probe beetle D-luciferin, read-out: Activity

T1 sequence (P08684 whole entry): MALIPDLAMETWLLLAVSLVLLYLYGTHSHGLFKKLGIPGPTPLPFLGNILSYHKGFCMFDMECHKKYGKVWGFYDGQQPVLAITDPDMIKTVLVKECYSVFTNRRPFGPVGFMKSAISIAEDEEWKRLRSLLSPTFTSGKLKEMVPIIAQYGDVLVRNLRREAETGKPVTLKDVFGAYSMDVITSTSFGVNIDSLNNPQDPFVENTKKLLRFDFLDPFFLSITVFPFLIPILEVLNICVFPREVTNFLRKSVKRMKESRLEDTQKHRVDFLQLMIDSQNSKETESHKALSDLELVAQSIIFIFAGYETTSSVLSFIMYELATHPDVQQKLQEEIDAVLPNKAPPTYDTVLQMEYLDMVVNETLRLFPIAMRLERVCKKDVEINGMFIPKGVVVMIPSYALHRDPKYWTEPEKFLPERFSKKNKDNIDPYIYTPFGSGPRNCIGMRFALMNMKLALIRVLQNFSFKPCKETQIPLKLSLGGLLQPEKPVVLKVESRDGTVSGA
T2 sequence (Q9Y5N1 whole entry): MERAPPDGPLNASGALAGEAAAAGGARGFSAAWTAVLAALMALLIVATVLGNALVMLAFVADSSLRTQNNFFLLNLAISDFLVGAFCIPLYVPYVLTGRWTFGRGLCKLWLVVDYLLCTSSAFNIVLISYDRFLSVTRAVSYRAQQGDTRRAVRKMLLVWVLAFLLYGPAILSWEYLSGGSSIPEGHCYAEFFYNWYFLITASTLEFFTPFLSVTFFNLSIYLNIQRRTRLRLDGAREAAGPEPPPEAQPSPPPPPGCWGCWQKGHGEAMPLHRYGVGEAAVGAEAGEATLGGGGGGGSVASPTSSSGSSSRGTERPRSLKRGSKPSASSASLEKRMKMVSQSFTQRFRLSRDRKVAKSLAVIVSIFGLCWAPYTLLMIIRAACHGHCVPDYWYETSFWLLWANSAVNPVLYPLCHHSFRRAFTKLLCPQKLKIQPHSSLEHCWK
Chain of Cytochrome P450 3A4 (P08684 whole entry): as the sequence (P08684 whole entry) above

## c1ccc(-c2ccc(OCCCCCCN3CCCCCC3)cc2)cc1
CYP3A4 [1]
  inhibition at 10 µM: 13%

## O=C(c1ccccc1)c1cccc(OCCCCCCN2CCCCCC2)c1
Cytochrome P450 3A4
  Activity: 713%
Histamine H3 receptor [2]
  Ki: 41 nM

## Clc1ccc(OCCCCCCN2CCCCCC2)cc1
CYP3A4 [1]
  inhibition at 10 µM: 23%

## CCC(C)(C)c1ccc(OCCCCN2CCCCCC2)cc1
CYP3A4 [1]
  inhibition at 10 µM: 5%

## CC(C)(C)c1ccc(OCCCCCCN2CCCCCC2)cc1
CYP3A4 [1]
  inhibition at 10 µM: 19%
Histamine H3 receptor [3]
  Ki: 829 nM

## Fc1ccc(OCCCCCCN2CCCCCC2)cc1
CYP3A4 [1]
  inhibition at 10 µM: 17%

## CCC(C)(C)c1ccc(OCCCN2CCCCCC2)cc1
CYP3A4 [1]
  inhibition at 10 µM: 13%

## c1ccc(-c2cccc(OCCCCCCN3CCCCCC3)c2)cc1
CYP3A4 [1]
  inhibition at 10 µM: 19%

## CCC(C)(C)c1ccc(OCCCCCCN2CCCCCC2)cc1
Cytochrome P450 3A4
  Activity: 18%

## CCC(C)(C)c1ccc(OCCCCCCCCN2CCCCCC2)cc1
CYP3A4 [1]
  inhibition at 10 µM: 41%

## CC1CCCN(CCCCCCCOc2ccc(Cl)cc2)C1 (stereo not drawn)
CYP3A4 [1]
  inhibition at 10 µM: 4%

## CCC(C)(C)c1ccc(OCCCCCCCN2CCCCCC2)cc1
CYP3A4 [1]
  inhibition at 10 µM: 38%

## CCC(C)(C)c1ccc(OCCCN2CCCCC2)cc1
CYP3A4 [1]
  inhibition at 10 µM: 8%

## c1ccc2cc(OCCCCCCN3CCCCCC3)ccc2c1
CYP3A4 [4]
  activity at 50 min, 10 µM: 14%

## c1ccc2c(OCCCCCCN3CCCCCC3)cccc2c1
CYP3A4 [1]
  inhibition at 10 µM: 46%

## CC(C)(C)c1ccc(OCCCN2CCCCC2)cc1
CYP3A4 [1]
  inhibition at 10 µM: 61%
